Experimental data from patent US20180244629A1, “Compounds And Compositions For The Treatment Of Cancer” (The Broad Institute, Inc., priority 2013, published 2018).
Read-outs that look alike come from different tables or passages of the source.

Legend:
[1] = tested on: HeLa cells; test: HeLa Cytotoxicity Assay (Cell Titer Glo viability); type: cell-based
Experimental: HeLa Cytotoxicity Assay Protocol: Day 0: HeLa cells (ATCC, HeLa CCL-2) are grown to 95% confluence in DMEM, 10% FBS/Pen/Strep/L-Glutamine. Day 1: Plate cells (1000 per well) in 40 μl culturing media using Corning 384-well plates (3570), incubate in standard TC conditions (5% CO2, 95% humidity, 37 degrees C.) for 24 hours. Day 2: Dilute each concentration of a half-log serial dilution of compound (1 mM-100 nM) 1:200 in culturing media and add 10 μl (50 μl total volume) of that dilution to designated wells (8 replicates per concentration). The final dilution will be 1000×(1 μM-100 pM). Day 4: Remove plate from incubator to cool for 20 minutes to room temperature. Add 40 μl of a 25% Promega Cell Titer Glo solution (diluted 1:3 with room temperature PBS) with Thermo combi or multichannel and incubate for 10 minutes. Read on Perkin-Elmer EnVision with US LUM settings for 0.1 second per well.
(§1) Compounds as shown were tested against various cells lines in vitro according to the methods described herein. Cells are plated in 384-well format in a total volume of 40 μl. Indicated compound concentrations were added 24 hrs after plating the cells. After 48 hrs cell viability was determined using Cell Titer Glo® Luminescent Cell Viability Assay.
as §1, with “Known PDE3 inhibitors” for “Compounds”, “shown below” for “shown”

[2] = tested on: A549 cells; test: A549 Cytotoxicity Assay (Cell Titer Glo viability); type: cell-based; conditions: Homo sapiens, A549
Experimental: A549 Cytotoxicity Assay Protocol. Day 0: A549 cells (ATCC, A549 CCL-185) are grown to 95% confluence in RPMI, 10% FBS/Pen/Strep/L-Glutamine. Day 1: Plate cells (1000 per well) in 40 μl culturing media using Corning 384-well plates (3570), incubate in standard TC conditions (5% CO2, 95% humidity, 37° C.) for 24 h. Day 2: Dilute each concentration of a half-log serial dilution of compound (1 mM-100 nM) 1:200 in culturing media and add […] (50 μl total volume) of that dilution to designated wells (8 replicates per concentration). The final dilution will be 1000×([…]). Day 4: Remove plate from incubator to cool for 20 minutes to room temperature. Add 40 μl of a 25% Promega Cell Titer Glo solution (diluted 1:3 with room temperature PBS) with Thermo combi or multichannel and incubate for 10 min. Read on Perkin-Elmer EnVision with US LUM settings for 0.1 second per well.
A549 Assay Protocol. Day 0: A549 cells (ATCC) are grown in a Triple flask (NUNC) to ˜95% confluence (TrypLE Phenol Red free) and resuspended for dispensing at 25,000 cells/mL of DMEM, 10% FBS/Pen/Strep/L-Glutamine (using the TAP Compact SelecT automated cell culture system). Day 1: Plate cells at 1000 per well in 40 uL media (DMEM/10% FBS/Pen/Strep/L-Glutamine) using Corning 8867BC 384 well plates; incubate in standard TC conditions (5% CO2; 95% humidity, 37° C.) for 24 hours (Compact SelecT). Day 2: Add 100 nL compound per well at dose into 40 uL assay volume using a pin tool (CyBi Well). Pin 100 nL cytotoxic compounds, mitoxantrone (CID 4212) to positive control wells to a final concentration of 10 μM (100 nL 4 mM DMSO stock). Incubate for […] at 37° C. in Liconic incubator, 95% humidity 5% CO2. Day 4: Remove plate from incubator, cool for 15 minutes to room temperature; add 20 μL 50% Promega CellTiterGlo (diluted 1:1 with PBS, pH 7.4) with Thermo Combi. Incubate at room temperature for 5 minutes. Read plates on Perkin-Elmer EnVision with standard luminescence settings for 0.1 sec per well.
as §1
as §1, with “Known PDE3 inhibitors” for “Compounds”, “shown below” for “shown”

[3] = Homo sapiens, HeLa, 48 h, Cell Titer Glo, read-out: EC50 HeLa
[4] = 48 hrs, Cell Titer Glo, read-out: EC50 A549
[5] = Homo sapiens, HeLa, Mean ± SD (n = 3), read-out: Potency (EC50 nM) HeLa
[6] = Mean ± SD (n = 3), read-out: Potency (EC50 nM) A549

| SMILES | EC50 [1, 5] [nM] | EC50 [2, 6] [nM] | also measured |
| --- | --- | --- | --- |
| CC(=O)Nc1ccc(C2=NNC(=O)C[C@H]2C)cc1Br [drawing 146] | – | – | EC50 [1, 3]: 42.1 nM; EC50 [2, 4]: > 10000 nM |
| C[C@@H]1CC(=O)NN=C1c1ccccc1 | 430 ± 50 | > 10000 | – |
| CCN(CC)c1ccc(-c2nc(C(C)C)no2)cc1[N+](=O)[O-] | – | – | EC50 ([1]; Homo sapiens, HeLa, n = 2, read-out: Potency (EC50) HeLa): > 10000 nM; EC50 ([2]; n = 2, read-out: Potency (EC50) A549): > 10000 nM |
| C[C@@H]1CC(=O)NN=C1c1ccc(N2CCCOC2=O)cc1 | > 1000 | > 10000 | – |
| CCNc1ccc(C2=NNC(=O)C[C@H]2C)cc1[N+](=O)[O-] [drawing 156] | 1.1 ± 0.5 | > 10000 | – |
| CCNc1ccc(C2=NNC(=O)C[C@H]2C)cc1 | 71 ± 7 | > 10000 | – |
| CC(=O)Nc1ccc(C2=NNC(=O)C[C@H]2C)cc1 [drawing 144] | – | – | EC50 [1, 3]: > 10000 nM; EC50 [2, 4]: > 10000 nM |
| Cc1cc(=O)[nH]nc1-c1ccc(N)cc1 [drawing 149] | – | – | EC50 [1, 3]: > 1000 nM; EC50 [2, 4]: > 10000 nM |
| CCN(CC)c1ccc(C2=NNC(=O)C[C@H]2C)cc1 | 3.8 ± 0.8 | > 10000 | – |
| CCCc1ccc(C2=NNC(=O)C[C@H]2C)cc1 | 16 ± 1 | > 10000 | – |
| C[C@@H]1CC(=O)NN=C1c1ccc(N)c(Br)c1 | – | – | EC50 [1, 3]: > 10000 nM; EC50 [2, 4]: > 10000 nM |
| C[C@@H]1CC(=O)NN=C1c1ccc(N2CCCC2=O)cc1 [drawing 182] | – | > 10000 | EC50 ([1]; Mean ± SD (n = 3), read-out: Potency (EC50 nM) HeLa): 140 ± 50 nM |
| CCN1N=C(c2ccc(N(CC)CC)cc2)[C@H](C)CC1=O [drawing 160] | > 1000 | > 10000 | – |
| CCN(CC)c1ccc(C2=NNC(=O)CC2C)cc1N (stereo not shown) | 240 ± 60 | > 10000 | – |
| CC(=O)Nc1ccc(C2=NNC(=O)C[C@H]2C)cc1[N+](=O)[O-] [drawing 143] | – | – | EC50 [1, 3]: 0.00608 nM; EC50 [2, 4]: > 10000 nM |
| C#Cc1cc(C2=NNC(=O)C[C@H]2C)ccc1NC(C)=O | 65 ± 10 | > 10000 | – |

| SMILES | EC50 [1, 5] [nM] | EC50 [2, 6] [nM] | also measured |
| --- | --- | --- | --- |
| CC1CC(=O)NN=C1c1ccc(N2CCOCC2)cc1 (stereo not shown) | 36 ± 9 | > 10000 | – |
| CC(=O)Nc1ccc(C2=NNC(=O)CC2C)cc1 (stereo not shown) [drawing 148] | – | – | EC50 ([1]; 48 hrs, Cell Titer Glo, read-out: EC50 HeLa): > 1000 nM; EC50 [2, 4]: > 10000 nM |
| CCN(CC)c1ccc(C2=NNC(=O)CC2C)cc1NC(C)=O (stereo not shown) | > 1000 | > 10000 | – |
| CC1CC(=O)NN=C1c1ccc(F)cc1 (stereo not shown) | 410 ± 270 | > 10000 | – |
| CC(=O)Nc1ccc(-c2n[nH]c(=O)cc2C)cc1 | > 1000 | > 10000 | – |
| CC1CC(=O)NN=C1c1ccc(C2=CCCCC2)cc1 (stereo not shown) | 2.2 ± 0.4 | > 10000 | – |
| CC1(C)C(=O)NN=C1c1ccc(Cl)cc1 | > 1000 | > 10000 | – |
| CC1(C)C(=O)NN=C1c1ccc(N)cc1 | > 1000 | > 10000 | – |
| CCN(CC)c1ccc(C2=NNC(=O)CC2C)cc1 (stereo not shown) | 8.8 ± 2.3 | > 10000 | – |
| C[C@@H]1CC(=O)NN=C1c1ccc(N2CCCCC2)cc1 | 3.9 ± 0.6 | > 10000 | – |
| CCN(CC)c1ccc(-c2n[nH]c(=O)cc2C)cc1 [drawing 200] | > 1000 | > 10000 | – |
| CC(=O)Nc1ccc(C2=NNC(=O)C[C@H]2C)cc1[N+](=O)[O-] [drawing 176] | 4.9 ± 1.1 | > 10000 | – |
| C[C@@H]1CC(=O)NN=C1c1ccc(F)c(F)c1 [drawing 190] | 22 ± 5 | > 10000 | – |
| CC(=O)Nc1ccc(C2=NNC(=O)C[C@H]2C)cc1Br [drawing 175] | 21 ± 1 | > 10000 | – |
| C[C@@H]1CC(=O)NN=C1c1ccc(C2CCCCC2)cc1 [drawing 196] | 7.7 ± 1.3 | > 10000 | – |
| C[C@@H]1CC(=O)NN=C1c1ccc(I)cc1 | 7.1 ± 0.8 | > 10000 | – |
